Consider four compounds from US20080234132A1, “Microcin B17 Analogs And Methods For Their Preparation And Use” (priority 2004, published 2008).

In brackets after ≈: the same amount, converted by molar mass. *1 amine or outer side, *2 acyl side, *3 side chain or, on linkers, in order; H or OH if unused. Where a SMILES comes first, the peptide text is derived from it. [ ]: non-standard residue; d: D form. X1 = O=C(c1ccc(CN[*:1])[nH]1)[*:2]; X2 = O=C(c1c[nH]c(CN[*:1])c1)[*:2] Bounds are passed on as bounds.

Data set [1] addresses E. coli DNA gyrase A2B2, MG1655 wild type (Escherichia coli, UniProt P0AES4+P0AES6). Type of data set: biochemical.
From the text: ATP hydrolysis by DNA gyrase was linked to the oxidation of NADH using a pyruvate Kinase (PK)/lactate dehydrogenase (LDH) coupled enzyme assay and measured at 340 nm on a Spectramax Plus Microplate. […] DMSO was kept constant at 2%.
(§6) Experimental data were fitted and treated with the following equation:
(§7) where L represents the inhibitor concentration, v represents the rate of the ATPase reaction, and v0 represents the rate in absence of inhibitor. The IC50 is deduced from the equation 2:
The target in data set [2] is E. coli DNA gyrase A2B2, W751R mutant (Trp751→Arg in DNA gyrase B subunit) (Escherichia coli, UniProt P0AES4+P0AES6, W751R). The following applies: FIG. 18.
Procedure: ATP hydrolysis by DNA gyrase was linked to the oxidation of NADH using a pyruvate Kinase (PK)/lactate dehydrogenase (LDH) coupled enzyme assay and measured at 340 nm on a Spectramax Plus Microplate. The ATPase assay was similar to that described previously by Pierrat & Maxwell, 2005. Each 100 μL reaction contained 50 mM Tris.HCl (pH 7.5), 24 mM KCl, 5 mM MgCl2, 6.5% (w/w) glycerol, 4 mM dithiotreitol, 0.4 mM NADH, 0.8 mM phosphorenol-pyruvate, 1% (w/w) PK/LDH mixture (Sigma), 51 nM-153 nM gyrase enzyme and the drug tested at varying concentrations. DMSO was kept constant at 2%. The reactions were measured in the presence or absence of linear DNA pBR322 at fixed concentration of 8.4 nM. Reactions were initiated by the addition of 10 mM Mg.ATP and measured at 25° C. over 1.5 hours.
(§8) DNA-dependent ATPase reactions were tested with the wild type enzyme A2B2 and the W751R mutant enzyme. In these DNA-dependent ATPase assays, the concentration of wild type A2B2 is 51 nM, the concentration of W751R mutant enzyme is 106 nM.
The target in data set [3] is DNA gyrase (MG 1655 A2B2) (Escherichia coli, UniProt P0AES4+P0AES6). Description: biochemical. On the set-up: species or system E. coli.
Procedure: (§9) GyrA and GyrB were added to a solution containing 35 mM Tris.HCl (pH, 7.5), 24 mM KCl, 4 mM MgCl2, 1.8 mM spermidine, 6.5% glycerol, 0.36 mg/mL BSA, 9 μg/mL tRNA, 5 mM DTT, 2 mM ATP and 24 nM relaxed pBR322 DNA. […] The reactions were incubated at 25° C., and at each time point 30-μl aliquots were quenched with 1 μL of 10% SDS. An equal volume of chloroform/isoamyl alcohol (24:1) and a half volume of loading buffer STEB (40% sucrose/100 mM Tris.HCl, pH 7.5/100 mM EDTA/2 mg/ml bromophenol blue) were added, and the mixtures then were vortexed and centrifuged for 1 min at 13,000 rpm. The aqueous phase was loaded onto 1% agarose, TAE (40 mM Tris-acetate, 1 mM EDTA) gels and were run at either 30 V overnight in TAE (in the cold room) or 70 V for 2.5 hours. The gels were stained for about 20 min in TAE containing 1 μg/ml ethidium bromide followed by destaining in multiple washes of TAE.
In data set [4] the target is DNA gyrase W751R A2B2 (Escherichia coli, UniProt P0AES4+P0AES6, W751R). As to the kind of experiment: Supercoiling in vitro assay, W751R mutant enzyme. The data set is classed as biochemical, E. coli.
Procedure: as §9
Data set [5] addresses DNA gyrase (Escherichia coli, UniProt P0AES4+P0AES6). The data set is classed as biochemical, E. coli. The following applies: for Cleavage (IC50 μM): Table 4.
Procedure: GyrA and GyrB were added to solutions containing 35 mM Tris.HCl (pH, 7.5), 24 mM KCl, 4 mM MgCl2, 1.8 mM spermidine, 6.5% glycerol, 0.36 mg/mL BSA, 9 μg/mL tRNA, 5 mM DTT, 2 mM ATP and 10 nM relaxed pBR322 DNA. […] The reactions were incubated at 25° C., and at each time point 30-μl aliquots were quenched with 1 μL of 10% SDS and 2 μL of 2 mg/ml proteinase K. Quenched aliquots were kept on ice until the experiment was completed, at which time they were incubated at 37° C. for half an hour. An equal volume of chloroform/isoamyl alcohol (24:1) and a half volume of loading buffer STEB (40% sucrose/100 mM Tris HCl, pH 7.5/1 mM EDTA/2 mg/ml bromophenol blue) were added, and the mixtures then were vortexed and centrifuged for 1 min at 13,000 rpm. The aqueous phase was loaded onto 1% agarose, TAE (40 mM Tris-acetate, 1 mM EDTA) gels that contained 1 μg/ml ethidium bromide and were run at either 30 V overnight in TAE containing 1 μg/ml ethidium bromide (in the cold room) or 70 V for 2.5 hours in TAE containing 1 μg/ml ethidium bromide.
Data set [6] deals with DNA gyrase A2B2 (Escherichia coli, UniProt P0AES4+P0AES6). As to the kind of experiment: biochemical. Type of data set: biochemical, E. coli.
Procedure: Relaxation assays were performed in a manner analogous to that described by Pierrat et al., 2005. Briefly, relaxation assays were performed as for the supercoiling assay but with some modifications: ATP and spermidine were omitted. Gyr A and Gyr B were added to a solutions containing 35 mM of Tris.HCl (pH=7.5), 24 mM of KCl, 4 mM of MgCl2, 1.8 mg/mL of spermidine, 6.5% of glycerol, 0.36 mg/mL of BSA, 9 μg/mL of tRNA, 5 mM of DTT, 2 mM of ATP and 24 nM of relaxed pBR322 DNA. […] The amount of DMSO was kept constant at 3.33%. The reactions were incubated at 25° C., and at each time point 30 μL aliquots were quenched with the addition of an equal volume of chloroform/isoamyl alcohol (24:1) and a half volume of loading buffer STEB (40% sucrose/100 mM Tris HCl, pH 7.5/100 mM EDTA/2 mg/mL bromophenol blue). The mixtures then were vortexed and centrifuged for 1 minute at 13,000 rpm. The aqueous phase was loaded onto 1% agarose, TAE (40 mM Tris-acetate, 1 mM EDTA) gels and were run at either 30 V overnight in TAE (in the cold room) or 70 V for 2.5 hours in TAE. The gels were stained for about 20 minutes in TAE containing 1 μg/mL ethidium bromide followed by destaining in multiple washes of TAE. The data were analysed using Syngel software.
Data set [7] has as its target DNA gyrase MG1655 wild type A2B2 (Escherichia coli, UniProt P0AES4+P0AES6). Description: biochemical. Set-up: species or system E. coli.
Procedure: ATP hydrolysis by DNA gyrase was linked to the oxidation of NADH using a pyruvate Kinase (PK)/lactate dehydrogenase (LDH) coupled enzyme assay and measured at 340 nm on a Spectramax Plus Microplate. […] Each 100 μL reaction contained 50 mM Tris.HCl (pH 7.5), 24 mM KCl, 5 mM MgCl2, 6.5% (w/w) glycerol, 4 mM dithiotreitol, 0.4 mM NADH, 0.8 mM phosphorenol-pyruvate, 1% (w/w) PK/LDH mixture (Sigma), 51 nM-153 nM gyrase enzyme and the drug tested at varying concentrations. DMSO was kept constant at 2%. The reactions were measured in the presence or absence of linear DNA pBR322 at fixed concentration of 8.4 nM. Reactions were initiated by the addition of 10 mM Mg.ATP and measured at 25° C. over 1.5 hours.
as §8, §6, §7
For data set [8], the target named is Wheatgerm topoisomerase I (Triticum aestivum, UniProt A0A3B6RK19). As to the kind of experiment: Wheatgerm topoisomerase I-mediated relaxation assay. Type of data set: biochemical. How it is done: Wheatgerm topoisomerase I-mediated relaxation assays were performed as per the manufacturer's instructions. Topoisomerase I (2 nM) was added to reactions containing 50 mM Tris. HCl pH 7.5, 50 mM NaCl, 0.1 mM EDTA, 1 mM DTT, 20% glycerol, 4.6 nM of […] pBR322 DNA, and inhibitor where appropriate.
(§1) All in vitro reactions were incubated at 37° C. for 30 minutes. The DMSO concentration in each reaction was kept constant at 3.33%. Reactions were quenched with the addition of an equal volume of phenol/chloroform/isoamyl alcohol (25:24:1) and one tenth volume of loading buffer containing 40% sucrose, 100 mM Tris.HCl pH 7.5, 100 mM EDTA, 2 mg/mL bromophenol blue. The proteins were precipitated by vortexing, followed by centrifugation for 5 minutes at 16 000 g. The aqueous phase was loaded onto 1% agarose gels in Tris-acetate and were electrophoresed at 60 V for three hours in Tris-acetate buffer. The gels were stained in 1 μg/mL ethidium bromide. The gels were visualised using UV light and were documented and analysed using Syngene software.

The target of data set [9] is T1, Human topoisomerase I (Homo sapiens, UniProt P11387).
T1 construct: purchased TopoGEN Inc. (Port Orange, Fla., USA)
T1 sequence (P11387 1-765): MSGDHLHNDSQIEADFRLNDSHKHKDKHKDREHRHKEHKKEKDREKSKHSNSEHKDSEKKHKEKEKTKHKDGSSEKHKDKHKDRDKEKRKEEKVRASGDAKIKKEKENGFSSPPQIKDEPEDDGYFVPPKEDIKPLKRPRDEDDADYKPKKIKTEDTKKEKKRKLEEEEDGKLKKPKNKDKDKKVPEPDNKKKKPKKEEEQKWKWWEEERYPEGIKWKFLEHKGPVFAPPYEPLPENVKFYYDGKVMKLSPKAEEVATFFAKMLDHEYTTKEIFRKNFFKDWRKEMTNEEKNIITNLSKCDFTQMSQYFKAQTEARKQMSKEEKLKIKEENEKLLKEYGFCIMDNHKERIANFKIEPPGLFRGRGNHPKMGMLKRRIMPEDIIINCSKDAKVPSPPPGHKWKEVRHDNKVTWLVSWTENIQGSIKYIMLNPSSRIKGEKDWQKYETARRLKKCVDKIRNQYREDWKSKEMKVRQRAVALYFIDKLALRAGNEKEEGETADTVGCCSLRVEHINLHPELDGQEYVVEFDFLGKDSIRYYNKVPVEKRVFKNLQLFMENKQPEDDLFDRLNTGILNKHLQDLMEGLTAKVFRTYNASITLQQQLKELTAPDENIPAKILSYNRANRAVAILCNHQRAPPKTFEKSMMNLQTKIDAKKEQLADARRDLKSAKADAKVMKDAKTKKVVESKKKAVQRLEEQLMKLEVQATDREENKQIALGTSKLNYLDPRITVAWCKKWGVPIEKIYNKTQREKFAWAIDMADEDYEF
As to the kind of experiment: Human topoisomerase I-mediated relaxation assay. The data set is classed as biochemical. As for the experimental part:
Human topoisomerase I-mediated relaxation assays were performed as per the manufacturer's instructions. Topoisomerase I (2 nM) was added to reactions containing 10 mM of Tris.HCl, pH 7.9, 150 mM NaCl, 100 μM spermidine.HCl, 5% glycerol, 0.1% BSA, 4.6 nM of […] pBR322 DNA, and inhibitor where appropriate.
as §1

Data set [10] can be described thus: Solubility.
For data set [11], the target named is T2, E. coli Topoisomerase IV (Escherichia coli, UniProt P0AFI2+P20083). Description: biochemical. Set-up: purchased John Innes Enterprises (Norwich, UK).
Procedure: (§10) Topoisomerase IV-mediated relaxation assays and decatenation assays were performed as previously described (see Peng and Marians, 1993). […] Decatenation assays contained topoisomerase IV (4 nM), 40 mM Tris HCl pH 7.5 at 30° C., 6 mM MgCl2, 10 mM DTT, 1 mM spermidine.HCl, 100 mM potassium glutamate, 0.5 mM ATP, 0.5 mg/mL BSA, 200 ng of kinetoplast DNA, and inhibitor where appropriate.
For data set [12], the target named is T2, E. coli Topoisomerase IV. As to the kind of experiment: biochemical. On the set-up: purchased John Innes Enterprises (Norwich, UK). The data set is classed as biochemical.
Procedure: as §10
Data set [13] has as its target T3, Human topoisomerase IIα (Homo sapiens, UniProt P11388). Description: Human Topoisomerase IIα-mediated relaxation assay. The data set is classed as biochemical. Set-up: purchased TopoGEN Inc. (Port Orange, Fla., USA). The conditions noted are these: Topo IIα Human, R (relaxation reaction) IC50. As for the experimental part: (§2) Human Topoisomerase IIα-mediated relaxation assays and decatenation assays were performed as per the manufacturer's instructions in a total of 20 μL. Relaxation assays contained Topoisomerase IIα (4.3 nM), 50 mM Tris.HCl pH 8,120 mM KCl, 10 mM MgCl2, 0.5 mM DTT, 0.5 mM ATP, 4.6 nM of supercoiled pBR322 DNA, and inhibitor where appropriate. Decatenation assays substituted the supercoiled DNA with 200 ng catenated kinetoplast DNA.
as §1

The target in data set [14] is T3, Human topoisomerase IIα. Description: Human Topoisomerase IIα decatenation assay. Type of data set: biochemical. Set-up: purchased TopoGEN Inc. (Port Orange, Fla., USA). How it is done:
as §2, §1

Data set [15] has as its system E. coli MG1655. Description: Halo assay, wild-type E. coli MG1655. The data set is classed as cell-based.
Procedure: Lawns of cells were prepared by spreading, on top of a LB+Agar plate, 3 ml of melted LSS medium (half-agar strength: 0.3 g Agar/50 ml LB) inoculated with 100 μl of a 10 ml LB overnight culture of E. coli cells grown at 37° C. […] The plates were incubated at 37° C. overnight and growth inhibition was qualitatively analysed by measuring the diameter of each halo.
Data set [16] concerns A. thaliana ecotype Columbia seeds. Description: Seed germination of A. thaliana. The data set is classed as in vivo, Arabidopsis thaliana.
Data set [17] concerns Arabidopsis thaliana ecotype Columbia plants. Description: Effects on A. thaliana seedlings and plants. The data set is classed as in vivo. How it is done:
(§3) The microcin derivatives were tested for efficacy in planta against Arabidopsis thaliana ecotype Columbia according to known methods (see Wall et al., 2004). Seeds were germinated on sterile media containing the appropriate peptide and the effects were observed over a three week period. […] In […] seeds, such as A. thaliana, during imbibition the quiescent seed rapidly resumes metabolic and respiratory activity. One of the first steps, as part of this process, is the initiation of mitochondrial DNA synthesis which requires DNA gyrase and which may explain the exquisite sensitivity of the germinating seeds to Peptides 1 and 2.
(§4) The leaf tissue initially turned yellow, followed by rapid necrosis of the tissue (see FIG. 32). […] The high hydrophility of Peptide 1 may preferentially allow the compound to readily diffuse through the leaf cuticle and epidermis to the mesophyll and phloem below.
(§5) The heterocyclic compounds were also spotted onto the leaves of 4 week old, tissue culture grown Arabidopsis thaliana ecotype Columbia plants (see FIG. 34, panels A-1). […] The browning and necrosis diffused through the full thickness of the leaf over the next 60 minutes (see FIG. 34, panel F) and spread towards the meristem (see FIG. 34, panels E, F, H). Complete necrosis of the meristem and newly emerged leaves, where organellar replication takes place, was complete within 24 hours (see FIG. 34, panel F).

The subject of data set [18] is Arabidopsis thaliana ecotype Columbia seeds. Description: Seed germination, Arabidopsis thaliana. Type of data set: in vivo. The conditions noted are these: three week period.
From the text: Germination begins when the dormant dry seed begins to take up water (imbibition from the surface sterilization process). Primary roots emerge while the seed is in the culture media. Subsequently the hypocotyls emerge and elongate to pull the cotyledons above the culture media surface. After straightening up, the cotyledons arrange into an horizontal position, as shown in the Figure, and, then spread apart in order to expose the first true leaves and the apical meristem (growing tip).
as §3

Data set [19] has as its system Arabidopsis thaliana ecotype Columbia plants. As to the kind of experiment: Effects on whole plants/seedlings, Arabidopsis thaliana. Type of data set: in vivo.
From the text: as §4, §5

The subject of data set [20] is HT-29 cells. As to the kind of experiment: MTT cell viability assay, HT-29. The data set is classed as cell-based, human. The conditions noted are these: Homo sapiens, HT-29; 24 hours, MTT; read-out: In vivo HT29 Cells, approximate IC50. On the technique in general: Tetrazolium assays rely on reduction of a dye to a coloured formazan, in cell work by metabolically active cells.
Procedure: (§11) Human cell cultures were initiated from frozen cell stocks (the gift of Dr J. Gavrilovic, UEA). […] Both human cell lines form adherent cultures and were maintained at 37° C. in T25 culture vessels as 10 mL cultures in CO2 Independent Media containing 10% foetal bovine serum (EU approved), 4 mM L-glutamine, penicillin/streptomycin (Invitrogen). […] Media was renewed every three days.
(§12) After incubation with MTT and solubilization, the resulting coloured solution is quantified using a scanning spectrophotometer. […] Cell viability was then determined by addition of MTT reagent (20 μL) in each well, as per manufacturer's instructions and incubated for a further 4 hours. Solubilization solution (100 μL) was added per well and the plates incubated overnight at 37° C. The plates were read in a spectrophotometer (scanning from 500-650 nm, signal peak at 570 nm).

Data set [21] deals with HeLa cells. As to the kind of experiment: MTT cell viability assay, HeLa. Type of data set: cell-based, human. The following applies: Homo sapiens, HeLa; 24 hours, MTT; read-out: In vivo HeLa Cells, approximate IC50.
Procedure: as §11, §12
The target of data set [22] is T3, Human topoisomerase IIα. As to the kind of experiment: Human topoisomerase IIα-mediated relaxation assay. Type of data set: biochemical. The following applies: topoisomerase assays (FIG. 27). Set-up: purchased TopoGEN Inc. As for the experimental part:
as §2, §1

The mark [23] stands for this setting: Supercoiling (IC50 μM) MG 1655 A2B2, Table 4.

T3 sequence (P11388 whole entry): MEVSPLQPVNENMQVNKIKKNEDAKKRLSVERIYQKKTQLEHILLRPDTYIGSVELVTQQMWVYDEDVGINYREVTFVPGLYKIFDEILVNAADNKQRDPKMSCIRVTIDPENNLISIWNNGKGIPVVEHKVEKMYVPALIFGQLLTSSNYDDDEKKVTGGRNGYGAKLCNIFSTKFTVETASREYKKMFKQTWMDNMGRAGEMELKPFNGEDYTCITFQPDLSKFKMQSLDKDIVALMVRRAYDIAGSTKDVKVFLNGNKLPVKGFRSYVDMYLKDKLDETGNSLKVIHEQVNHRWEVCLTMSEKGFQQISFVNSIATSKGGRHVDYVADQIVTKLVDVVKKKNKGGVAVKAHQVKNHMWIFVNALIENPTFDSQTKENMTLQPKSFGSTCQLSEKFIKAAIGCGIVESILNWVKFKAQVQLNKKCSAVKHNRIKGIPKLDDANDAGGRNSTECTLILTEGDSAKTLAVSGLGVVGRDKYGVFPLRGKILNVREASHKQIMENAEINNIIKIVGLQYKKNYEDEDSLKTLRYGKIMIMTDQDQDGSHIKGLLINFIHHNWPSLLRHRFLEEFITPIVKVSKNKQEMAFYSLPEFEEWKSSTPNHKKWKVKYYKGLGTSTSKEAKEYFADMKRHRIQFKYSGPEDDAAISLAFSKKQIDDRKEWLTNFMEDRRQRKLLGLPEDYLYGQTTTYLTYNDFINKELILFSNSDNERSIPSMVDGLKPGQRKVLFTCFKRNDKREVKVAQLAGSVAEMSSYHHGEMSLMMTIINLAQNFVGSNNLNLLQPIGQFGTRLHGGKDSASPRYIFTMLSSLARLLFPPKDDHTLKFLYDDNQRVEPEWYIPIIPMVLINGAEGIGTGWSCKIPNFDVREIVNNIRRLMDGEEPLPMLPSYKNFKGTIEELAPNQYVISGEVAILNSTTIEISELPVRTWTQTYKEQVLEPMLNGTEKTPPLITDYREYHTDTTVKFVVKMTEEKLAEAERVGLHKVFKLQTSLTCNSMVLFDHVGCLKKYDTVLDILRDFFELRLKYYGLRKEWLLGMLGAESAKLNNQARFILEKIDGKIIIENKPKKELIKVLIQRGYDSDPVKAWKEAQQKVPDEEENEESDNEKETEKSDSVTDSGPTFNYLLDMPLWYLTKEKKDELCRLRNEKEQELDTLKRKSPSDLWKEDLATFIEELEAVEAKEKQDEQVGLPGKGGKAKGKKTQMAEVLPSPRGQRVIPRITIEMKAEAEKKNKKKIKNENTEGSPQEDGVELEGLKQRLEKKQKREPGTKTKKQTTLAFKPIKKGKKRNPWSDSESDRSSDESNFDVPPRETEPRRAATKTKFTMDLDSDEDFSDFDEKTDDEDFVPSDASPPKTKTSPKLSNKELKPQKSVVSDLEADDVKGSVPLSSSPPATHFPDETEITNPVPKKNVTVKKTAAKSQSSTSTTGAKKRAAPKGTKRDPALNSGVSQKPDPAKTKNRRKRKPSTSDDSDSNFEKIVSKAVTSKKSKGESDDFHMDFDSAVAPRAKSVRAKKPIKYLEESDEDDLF
T2 sequence (P20083 whole entry): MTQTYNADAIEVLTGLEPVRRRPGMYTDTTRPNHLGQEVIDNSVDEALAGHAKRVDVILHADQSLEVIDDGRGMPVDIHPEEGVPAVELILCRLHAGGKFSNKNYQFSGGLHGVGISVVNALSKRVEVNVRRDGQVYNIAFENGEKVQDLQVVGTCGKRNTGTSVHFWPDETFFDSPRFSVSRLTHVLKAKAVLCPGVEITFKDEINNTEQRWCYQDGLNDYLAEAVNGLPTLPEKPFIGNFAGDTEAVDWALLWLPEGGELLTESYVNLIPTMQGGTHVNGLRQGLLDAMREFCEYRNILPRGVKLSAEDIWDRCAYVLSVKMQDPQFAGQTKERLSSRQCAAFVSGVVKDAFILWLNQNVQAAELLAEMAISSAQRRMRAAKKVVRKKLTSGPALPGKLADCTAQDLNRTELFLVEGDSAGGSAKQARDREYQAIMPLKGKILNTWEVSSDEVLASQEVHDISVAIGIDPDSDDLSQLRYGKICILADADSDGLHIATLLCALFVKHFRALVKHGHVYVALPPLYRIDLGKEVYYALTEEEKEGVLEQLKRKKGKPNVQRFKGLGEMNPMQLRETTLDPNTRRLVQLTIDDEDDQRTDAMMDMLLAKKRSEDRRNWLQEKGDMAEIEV
T2 sequence (P0AFI2 whole entry): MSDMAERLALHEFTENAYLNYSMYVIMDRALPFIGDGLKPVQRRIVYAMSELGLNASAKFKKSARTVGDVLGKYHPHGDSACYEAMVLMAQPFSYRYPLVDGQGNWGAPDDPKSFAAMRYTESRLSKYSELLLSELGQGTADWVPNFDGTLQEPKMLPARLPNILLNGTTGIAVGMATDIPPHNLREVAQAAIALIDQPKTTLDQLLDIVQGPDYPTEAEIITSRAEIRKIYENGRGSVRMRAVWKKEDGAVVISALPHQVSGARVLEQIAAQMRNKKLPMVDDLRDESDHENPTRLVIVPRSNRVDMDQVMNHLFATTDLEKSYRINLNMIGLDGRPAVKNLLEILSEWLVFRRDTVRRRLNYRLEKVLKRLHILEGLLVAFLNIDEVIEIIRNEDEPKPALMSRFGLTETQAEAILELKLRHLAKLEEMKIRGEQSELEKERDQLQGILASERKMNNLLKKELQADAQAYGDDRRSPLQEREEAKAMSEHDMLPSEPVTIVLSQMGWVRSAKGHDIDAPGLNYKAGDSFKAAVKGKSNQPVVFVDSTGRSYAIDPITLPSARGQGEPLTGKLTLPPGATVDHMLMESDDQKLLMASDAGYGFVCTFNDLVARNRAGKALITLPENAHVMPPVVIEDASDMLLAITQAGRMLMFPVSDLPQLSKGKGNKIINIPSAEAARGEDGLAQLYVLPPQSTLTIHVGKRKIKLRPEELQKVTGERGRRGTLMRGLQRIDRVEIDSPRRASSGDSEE
Sequence of Wheatgerm topoisomerase I (A0A3B6RK19 entry or part of it): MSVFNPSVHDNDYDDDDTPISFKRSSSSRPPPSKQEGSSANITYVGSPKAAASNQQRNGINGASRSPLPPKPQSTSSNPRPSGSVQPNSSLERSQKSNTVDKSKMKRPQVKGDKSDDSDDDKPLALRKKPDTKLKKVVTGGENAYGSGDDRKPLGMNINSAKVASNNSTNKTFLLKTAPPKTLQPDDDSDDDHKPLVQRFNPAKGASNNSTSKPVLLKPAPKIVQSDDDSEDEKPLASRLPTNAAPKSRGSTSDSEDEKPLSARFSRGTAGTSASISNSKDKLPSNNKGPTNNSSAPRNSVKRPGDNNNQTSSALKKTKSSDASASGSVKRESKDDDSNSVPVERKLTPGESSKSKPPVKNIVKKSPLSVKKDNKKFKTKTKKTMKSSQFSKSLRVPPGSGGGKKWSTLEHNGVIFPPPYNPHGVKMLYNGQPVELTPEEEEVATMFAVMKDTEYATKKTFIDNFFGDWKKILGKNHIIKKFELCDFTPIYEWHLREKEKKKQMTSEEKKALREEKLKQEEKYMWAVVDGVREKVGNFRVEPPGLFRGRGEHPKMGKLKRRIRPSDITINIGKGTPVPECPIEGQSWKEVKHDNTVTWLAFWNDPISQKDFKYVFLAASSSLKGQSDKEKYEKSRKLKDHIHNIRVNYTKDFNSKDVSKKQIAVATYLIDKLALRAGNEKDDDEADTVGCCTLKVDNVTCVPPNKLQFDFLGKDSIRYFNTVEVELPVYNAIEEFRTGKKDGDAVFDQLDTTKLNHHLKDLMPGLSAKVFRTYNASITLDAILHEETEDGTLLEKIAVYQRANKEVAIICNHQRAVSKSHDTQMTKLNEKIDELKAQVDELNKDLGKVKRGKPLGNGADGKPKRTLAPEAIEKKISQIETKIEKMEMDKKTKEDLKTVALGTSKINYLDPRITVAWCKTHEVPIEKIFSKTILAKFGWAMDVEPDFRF

With `O=C(O)c1cn(C2CC2)c2cc(N3CCNCC3)c(F)cc2c1=O` [Ciprofloxacin], the “Inhibition of DNA-dependent ATPase” value in data set [1] is “slow down this ATPase hydrolysis rate of both wild type and mutant enzyme”. Besides, the “DNA-dependent ATPase, W751R mutant (novobiocin, ciprofloxacin)” value in data set [2] is “slow down this ATPase hydrolysis rate of both wild type and mutant enzyme”.

For `CC(NC(=O)CNC(=O)CNC(=O)c1ccc(CNC(=O)C(C)NC(=O)CNC(=O)C(N)CCC(N)=O)[nH]1)C(=O)O` (centres unmarked) [Peptide 1] (H-QGA[X1]GGA-OH; configuration not given here), the IC50 (usually the concentration that gives 50% inhibition) was 68 µM in [3] (setting [23]); less than 75 µM in data set [3] (inhibition of supercoiling IC50, [A2B2] 13.2 nM, incubated up to 4 h); greater than 200 µM in data set [4]; 68 µM in [6]; 37 µM in [7]; less than 10 µM in data set [11]. In data set [13], this compound came in with an IC50 of less than 20 µM. Further, in data set [5], the “Cleavage (IC50 μM)” value was “inactive”. Further, the “ATPase % inhibition at saturation” value in [7] (Table 4) is 15%. Also, the “Topo I Wheatgerm IC50” value in [8] is given as “inhibited”. For the same compound, the “Topo I Human IC50” value in [9] is “inhibited”. For the same compound, the “times more soluble than MccB17” value in [10] is on record as “at least 20 times”. The solubility (as a rule, how much of the substance goes into solution per volume) in data set [10] (water with 2% DMSO) was found to be 1000 µM (≈ 582 µg/mL). Besides, the “Topo IV, D (decatenation reaction) IC50” value in [12] is reported as “exquisitely sensitive”. Besides, in data set [14], the “Topo IIα Human, D (decatenation reaction) IC50” value is “exquisitely sensitive”.

As for `C[C@H](NC(=O)CNC(=O)CNC(=O)c1c[nH]c(CNC(=O)[C@H](C)NC(=O)CNC(=O)[C@@H](N)CCC(N)=O)c1)C(=O)O` [Peptide 2] (H-QGA[X2]GGA-OH), in [3] (FIG. 13), the “supercoiling activity relative to Peptide 1” value was “about half as active as Peptide 1”. The concentration for half-maximal inhibition (IC50) in [3] (setting [23]) and in [6] was greater than 100 µM in each case. Besides, the “stabilisation of the cleaved DNA-enzyme (cleavage) complex” value in [5] (Peptide 1 at 100 μM, [A2B2]=30 nM, up to 1 h) is listed as “Neither Peptide 1 nor Peptide 2 stabilise”. For the same compound, the “Cleavage (IC50 μM)” value in data set [5] is “inactive”. The “haloassay activity relative to Peptide 1” value in data set [15] is “twice less active than Peptide 1”. Moreover, the “concentration at which the relaxation reaction is inhibited” value in data set [6] (A2B2 70 nM, MccB17 tested at 25 μM) was found to be 200 µM. Moreover, the “effect on seed germination” value in data set [16] (100 μM) is given as “only a bleaching effect”; in data set [16] (150 μM) it was “seed germination occurred but the growth is slower compared with the untreated seeds”. The “effects on 6-week old seedlings and germinating seeds” value in data set [16] (200 μM) was “the same as the effects observed for 100 μM Peptide 1”. Also, in data set [16] (concentrations tested), the “activity against seed germination” value is recorded as “able to inhibit germination”. The “potency relative to Peptide 1 in plant assays” value in data set [16] (in vivo) is “half the potency of Peptide 1”. The “effect on 4-week old plants transferred to media containing the compound” value in [17] (100 μM Peptide 1, 200 μM Peptide 2) is recorded as “induced tumourous, undifferentiated cell growth”. Also, the “effect on 6-week old seedlings” value in [17] (in vivo) is on record as “induces tumour-like growth”; in data set [19] (observed at 150 μM (FIG. 26)), “induces tumour-like growth near the apical meristem zone”. Besides, the “Inhibition of seed germination” value in [18] is “able to inhibit germination of the seeds”. In addition, the “Effect on 4-week old plants” value in [19] (200 μM) was “induced tumourous, undifferentiated cell growth in the meristematic region and petioles”. Also, the concentration in solution in data set [10] (water) (solubility) came to 1000 µM (≈ 582 µg/mL).

Take `NCc1nc(C(=O)O)cs1` [deBoc-thiazole]: the values for the IC50 in [20] and in [21] were roughly 15 µM and roughly 75 µM, respectively. In addition, in [22], the “IC50 of deBoc-thiazole compared with thiazole compound” value is listed as “no difference to the calculated IC50 values”.
